Article PMC7794376 (Nature Communications, 2021)
≈ marks a conversion by molar mass, not a printed value. Where “and” joins values, the source holds several entries; their conditions need not be identical. Identical values can stand only once. Like-named read-outs stand apart in the source and are kept apart here.

How the values were obtained:
human CoaB (HCoaB) = human CoaB (HCoaB) (Homo sapiens, UniProt Q9HAB8); test: EnzChek pyrophosphate assay, HCoaB; format: biochemical; conditions: replicates R1-R3; for Activity: slope of absorbance at 360 nm vs time (s)
MsmCoaBC = MsmCoaBC (Mycolicibacterium smegmatis, UniProt A0QWT2); test: EnzChek pyrophosphate assay, CoaB activity of MsmCoaBC; format: biochemical, Mycobacterium smegmatis
Procedure: The commercially available EnzChek pyrophosphate assay kit (E-6645) (Life Technologies) was used for this assay. […] In the assays with HCoaB an enzyme concentration of 1 µM was used instead. […] Assays were performed on either a CLARIOstar or PHERAstar microplate reader (BMG Labtech) in 96-well plates (Greiner). A substrate mixture containing the substrates and the inhibitor was pre-incubated at 25 °C for 10 min. An enzyme solution was prepared and separately pre-incubated at 25 °C for 10 min. The reaction was initiated by the addition of the substrates to the solution containing the enzyme to a final volume of 75 µL. Enzymatic activity was monitored by following the absorbance at 360 nm for 30 min (100 cycles/20 s each cycle) and only the steady-state region of the assay was used for data analysis. Assays were performed in triplicates, including a negative control (lacking PPA) and a positive control (lacking inhibitor).

MtbCoaBC [1] = biological target: T1, MtbCoaBC (Mycobacterium tuberculosis, UniProt P9WNZ1); test: High-throughput end-point pyrophosphate quantification assay (Biomol Green); format: biochemical; conditions: MtbCoaB activity; end-point, 2 µM CTP, 40 µM L-cysteine, 30 µM PPA; read-out: IC50 biomol green assay
MtbCoaBC [2] = biological target: T1, MtbCoaBC; test: Competition assays, first half of CoaB reaction (EnzChek, variable CTP or PPA); format: biochemical; conditions: in words
MtbCoaBC [3] = biological target: T1, MtbCoaBC; test: CMP quantification assay (UPLC), second half of CoaB reaction, variable L-cysteine; format: biochemical; conditions: for CMP formation rate, uM CMP/uM protein.s-1: MtbCoaBC 32 nM, replicates R1-R3
M. tuberculosis H37Rv = test: MIC determination in different media; format: cell-based; conditions: Mycobacterium tuberculosis, read-out: Minimum inhibitory concentration (MIC)
[4] = test system: M. tuberculosis coaBC Tet-OFF conditional knockdown; format: cell-based, Mycobacterium tuberculosis; conditions: GAST/Fe minimal media
[5] = 50 uM 1b, relative to average DMSO CT
[6] = 100 uM 1b, relative to average DMSO CT
[7] = MsmCoaBC, 1b at concentration 1 (log 0; unit not given)
[8] = MsmCoaBC, 1b at concentration 2 (log 0.30103; unit not given)
[9] = MsmCoaBC, 0.015625 uM 1b, relative to average DMSO CT, replicates R1-R3
[10] = MsmCoaBC, 0.015625 uM 1b, replicates R1-R3
[11] = MsmCoaBC, 0.03125 uM 1b, relative to average DMSO CT, replicates R1-R3
[12] = MsmCoaBC, 0.03125 uM 1b, replicates R1-R3
[13] = MsmCoaBC, 0.0625 uM 1b, relative to average DMSO CT, replicates R1-R3
[14] = MsmCoaBC, 0.0625 uM 1b, replicates R1-R3
[15] = MsmCoaBC, 0.25 uM 1b, relative to average DMSO CT, replicates R1-R3
[16] = MsmCoaBC, 0.25 uM 1b, replicates R1-R3
[17] = MsmCoaBC, 0.5 uM 1b, replicates R1-R3

Chain of human CoaB (HCoaB) (Q9HAB8 whole entry): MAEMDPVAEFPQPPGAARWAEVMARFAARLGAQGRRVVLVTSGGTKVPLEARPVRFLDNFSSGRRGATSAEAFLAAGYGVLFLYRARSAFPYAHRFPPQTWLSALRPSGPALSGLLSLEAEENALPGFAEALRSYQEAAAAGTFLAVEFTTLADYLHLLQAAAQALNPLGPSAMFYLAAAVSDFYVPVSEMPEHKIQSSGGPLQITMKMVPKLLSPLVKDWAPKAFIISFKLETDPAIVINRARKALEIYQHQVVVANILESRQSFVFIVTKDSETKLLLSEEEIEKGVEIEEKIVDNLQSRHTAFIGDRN
T1 sequence (P9WNZ1 whole entry): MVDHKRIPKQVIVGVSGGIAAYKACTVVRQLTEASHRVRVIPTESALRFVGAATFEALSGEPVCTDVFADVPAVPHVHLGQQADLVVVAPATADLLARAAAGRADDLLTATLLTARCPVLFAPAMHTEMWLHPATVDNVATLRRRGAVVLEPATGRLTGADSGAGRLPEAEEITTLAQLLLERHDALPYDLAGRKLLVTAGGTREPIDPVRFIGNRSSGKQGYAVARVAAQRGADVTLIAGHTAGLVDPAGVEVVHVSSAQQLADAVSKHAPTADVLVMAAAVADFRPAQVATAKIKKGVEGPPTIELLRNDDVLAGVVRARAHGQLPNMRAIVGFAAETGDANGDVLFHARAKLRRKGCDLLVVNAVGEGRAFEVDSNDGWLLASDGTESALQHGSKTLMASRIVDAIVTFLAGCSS
Chain of MsmCoaBC (A0QWT2 whole entry): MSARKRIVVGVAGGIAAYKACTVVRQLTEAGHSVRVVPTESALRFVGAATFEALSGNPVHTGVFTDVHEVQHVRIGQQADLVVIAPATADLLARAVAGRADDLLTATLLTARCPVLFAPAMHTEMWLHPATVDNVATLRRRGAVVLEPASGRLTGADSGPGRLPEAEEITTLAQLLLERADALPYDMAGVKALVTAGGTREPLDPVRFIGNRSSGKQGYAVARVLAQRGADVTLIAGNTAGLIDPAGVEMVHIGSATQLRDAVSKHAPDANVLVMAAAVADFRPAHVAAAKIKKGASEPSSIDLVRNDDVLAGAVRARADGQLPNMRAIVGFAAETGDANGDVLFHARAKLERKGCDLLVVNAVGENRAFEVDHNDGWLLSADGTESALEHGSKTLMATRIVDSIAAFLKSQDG

O=C(c1ccc(O)cc1)c1ccc(O)c(O)c1O [compound 1b]
inhibition at 25 µM (human CoaB (HCoaB); 25 uM 1b): 17.3%
Activity (human CoaB (HCoaB); 25 uM 1b): 0.0001127 and 0.0001145 and 0.0001146
Activity % (human CoaB (HCoaB); [5]): 63.96% and 63.87%
activity at 50 µM (human CoaB (HCoaB); [5]): 75.6%
Inhibition % (human CoaB (HCoaB); 50 uM 1b): 36.13% and 24.38%
inhibition at 50 µM (human CoaB (HCoaB); 50 uM 1b): 36%
Activity (human CoaB (HCoaB); 50 uM 1b): 0.0001047 and 0.000088534 and 0.000088398
Activity % (human CoaB (HCoaB); [6]): 56.11% and 53.46%
activity at 100 µM (human CoaB (HCoaB); [6]): 60.5%
Inhibition % (human CoaB (HCoaB); 100 uM 1b): 46.54% and 39.47%
inhibition at 100 µM (human CoaB (HCoaB); 100 uM 1b): 43.9%
Activity (human CoaB (HCoaB); 100 uM 1b): 0.000083783 and 0.000077656 and 0.000074000
Activity (human CoaB (HCoaB); 200 uM 1b, compound interference at 200uM makes the assay unreliable): -0.000004063 and 0.000002127 and -0.000001796
IC50 (MsmCoaBC): 260 ± 20 nM
inhibition, replicates 1-3 (MsmCoaBC; [7]): 86.05 and 84.82 and 84.29
reaction rate (slope of absorbance at 360 nm versus time), replicates 1-3 (MsmCoaBC; [7]): 0.000051231 and 0.000045511 and 0.000049507
remaining activity relative to control, replicates 1-3 (MsmCoaBC; [7]): 15.71 and 13.95 and 15.18
inhibition, replicates 1-3 (MsmCoaBC; [8]): 94.07
reaction rate (slope of absorbance at 360 nm versus time), replicates 1-3 (MsmCoaBC; [8]): -0.000000851 and -0.000003095 and 0.000019348
remaining activity relative to control, replicates 1-3 (MsmCoaBC; [8]): -0.2608 and -0.9489 and 5.932
Activity % (MsmCoaBC; [9]): 96.69% and 95.33%
activity at 0.015625 µM (MsmCoaBC; [9]): 98.6%
Activity (slope of absorbance at 360 nm vs time) (MsmCoaBC; [10]): 0.0003217 and 0.0003154 and 0.0003109
Inhibition % (MsmCoaBC; [10]): 3.31% and 4.67% and 1.38%
Activity % (MsmCoaBC; [11]): 95.46% and 96.92%
activity at 0.03125 µM (MsmCoaBC; [11]): 93.2%
Activity (slope of absorbance at 360 nm vs time) (MsmCoaBC; [12]): 0.0003041 and 0.0003114 and 0.0003161
Inhibition % (MsmCoaBC; [12]): 4.54% and 3.08% and 6.75%
Activity % (MsmCoaBC; [13]): 92.06% and 92.26%
activity at 0.0625 µM (MsmCoaBC; [13]): 85.7%
Activity (slope of absorbance at 360 nm vs time) (MsmCoaBC; [14]): 0.0002796 and 0.0003003 and 0.0003009
Inhibition % (MsmCoaBC; [14]): 7.74% and 14.27%
inhibition at 0.0625 µM (MsmCoaBC; [14]): 7.94%
Activity % (MsmCoaBC; [15]): 48.31% and 55.06%
activity at 0.25 µM (MsmCoaBC; [15]): 46%
Activity (slope of absorbance at 360 nm vs time) (MsmCoaBC; [16]): 0.0001501 and 0.0001576 and 0.0001796
Inhibition % (MsmCoaBC; [16]): 44.94% and 53.97%
inhibition at 0.25 µM (MsmCoaBC; [16]): 51.7%
Activity % (MsmCoaBC; MsmCoaBC, 0.5 uM 1b, relative to average DMSO CT, replicates R1-R3): 12.28% and 18.89% and 25.96%
Activity (slope of absorbance at 360 nm vs time) (MsmCoaBC; [17]): 0.000040045 and 0.000061602 and 0.000084683
Inhibition % (MsmCoaBC; [17]): 74.04% and 87.72%
inhibition at 0.5 µM (MsmCoaBC; [17]): 81.1%
IC50 (MtbCoaBC [1]): 300 nM
mode of inhibition (MtbCoaBC [2]; relative to CTP): uncompetitive inhibition
mode of inhibition (MtbCoaBC [2]; relative to PPA): uncompetitive inhibition
CMP formation rate, uM CMP/uM protein.s-1 (MtbCoaBC [3]; 0.0625 uM 1b, 31.25 uM L-cysteine): 0.1694 uM CMP/uM protein.s-1 and 0.1962 uM CMP/uM protein.s-1 and 0.1676 uM CMP/uM protein.s-1
CMP formation rate, uM CMP/uM protein.s-1 (MtbCoaBC [3]; 0.0625 uM 1b, 62.5 uM L-cysteine): 0.2113 uM CMP/uM protein.s-1 and 0.2325 uM CMP/uM protein.s-1 and 0.2281 uM CMP/uM protein.s-1
CMP formation rate, uM CMP/uM protein.s-1 (MtbCoaBC [3]; 0.0625 uM 1b, 250 uM L-cysteine): 0.2822 uM CMP/uM protein.s-1 and 0.2759 uM CMP/uM protein.s-1 and 0.2797 uM CMP/uM protein.s-1
CMP formation rate, uM CMP/uM protein.s-1 (MtbCoaBC [3]; 0.0625 uM 1b, 500 uM L-cysteine): 0.3148 uM CMP/uM protein.s-1 and 0.3211 uM CMP/uM protein.s-1 and 0.3277 uM CMP/uM protein.s-1
CMP formation rate, uM CMP/uM protein.s-1 (MtbCoaBC [3]; 0.250 uM 1b, 31.25 uM L-cysteine): 0.1192 uM CMP/uM protein.s-1 and 0.1053 uM CMP/uM protein.s-1 and 0.1262 uM CMP/uM protein.s-1
CMP formation rate, uM CMP/uM protein.s-1 (MtbCoaBC [3]; 0.250 uM 1b, 62.5 uM L-cysteine): 0.1329 uM CMP/uM protein.s-1 and 0.1247 uM CMP/uM protein.s-1 and 0.1395 uM CMP/uM protein.s-1
CMP formation rate, uM CMP/uM protein.s-1 (MtbCoaBC [3]; 0.250 uM 1b, 250 uM L-cysteine): 0.1577 uM CMP/uM protein.s-1 and 0.155 uM CMP/uM protein.s-1 and 0.1593 uM CMP/uM protein.s-1
CMP formation rate, uM CMP/uM protein.s-1 (MtbCoaBC [3]; 0.250 uM 1b, 500 uM L-cysteine): 0.1688 uM CMP/uM protein.s-1 and 0.1557 uM CMP/uM protein.s-1 and 0.1625 uM CMP/uM protein.s-1
mode of inhibition (MtbCoaBC [3]; relative to L-cysteine, in words): uncompetitive inhibition
MIC (M. tuberculosis H37Rv; 7H9/ADC/Glycerol): > 250 µM
MIC (M. tuberculosis H37Rv; 7H9/Cholesterol/Tyloxapol): > 250 µM
MIC (M. tuberculosis H37Rv; GAST/Fe): 125 µM (≈ 30.8 µg/mL)
sensitisation on incremental silencing of CoaBC [4]: did not sensitise M. tuberculosis further
